# Measured values reported in paper PMC4917279 (Journal of Medicinal Chemistry, 2016).
# Entries after “also recorded” stand apart in the source; their conditions may differ.
# Experiments:
# SMYD2 = SMYD2 (Homo sapiens, UniProt Q9NRG4); experiment: AHNAK methylation Western blot in MDA-MB231 cells overexpressing SMYD2; assay type: cell-based; parameters: expressed in transfected cells
# ARK5 = molecular target: T1, ARK5 (Homo sapiens, UniProt O60285); experiment: KINOMEscan; assay type: binding; conditions: read-out: %Ctrl @ 1000 nM
# T1 construct: purchased DiscoveRx KINOMEscan
# FRK = molecular target: T2, FRK (Homo sapiens, UniProt P42685); experiment: KINOMEscan; assay type: binding; conditions: read-out: %Ctrl @ 1000 nM
# T2 construct: purchased DiscoveRx KINOMEscan
# KIT(V559D) = molecular target: T3, KIT(V559D) (Homo sapiens, UniProt P10721, V559D); experiment: KINOMEscan; assay type: binding; conditions: read-out: %Ctrl @ 1000 nM
# T3 construct: purchased DiscoveRx KINOMEscan
# CSNK1G1 = molecular target: T4, CSNK1G1 (Homo sapiens, UniProt Q9HCP0); experiment: KINOMEscan; assay type: binding; conditions: read-out: %Ctrl @ 1000 nM
# T4 construct: purchased DiscoveRx KINOMEscan
# CDK8 = molecular target: T5, CDK8 (Homo sapiens, UniProt P49336); experiment: KINOMEscan; assay type: binding; conditions: read-out: %Ctrl @ 1000 nM
# T5 construct: purchased DiscoveRx KINOMEscan
# SGK3 = molecular target: T6, SGK3 (Homo sapiens, UniProt Q96BR1); experiment: KINOMEscan; assay type: binding; conditions: read-out: %Ctrl @ 1000 nM
# T6 construct: purchased DiscoveRx KINOMEscan
# ABL1-nonphosphorylated = molecular target: T7, ABL1-nonphosphorylated (Homo sapiens, UniProt P00519); experiment: KINOMEscan; assay type: binding; conditions: read-out: %Ctrl @ 1000 nM
# T7 construct: purchased DiscoveRx
# ZAK = molecular target: T8, ZAK (Homo sapiens, UniProt Q9NYL2); experiment: KINOMEscan; assay type: binding; conditions: read-out: %Ctrl @ 1000 nM
# T8 construct: purchased DiscoveRx
# TBK1 = molecular target: T9, TBK1 (Homo sapiens, UniProt Q9UHD2); experiment: KINOMEscan; assay type: binding; conditions: read-out: %Ctrl @ 1000 nM
# T9 construct: purchased DiscoveRx KINOMEscan
# DLK = molecular target: T10, DLK (Homo sapiens, UniProt Q12852); experiment: KINOMEscan; assay type: binding; conditions: read-out: %Ctrl @ 1000 nM
# T10 construct: purchased DiscoveRx KINOMEscan
# [1] = molecular target: T11, EGFR(L747-E749del, A750P) (Homo sapiens, UniProt P00533, A750P/DEL747-749); experiment: KINOMEscan; assay type: binding; conditions: read-out: %Ctrl @ 1000 nM
# T11 construct: purchased DiscoveRx KINOMEscan
# EGFR(T790M) = molecular target: T12, EGFR(T790M) (Homo sapiens, UniProt P00533, T790M); experiment: KINOMEscan; assay type: binding; conditions: read-out: %Ctrl @ 1000 nM
# T12 construct: purchased DiscoveRx KINOMEscan
# PAK4 = molecular target: T13, PAK4 (Homo sapiens, UniProt O96013); experiment: KINOMEscan; assay type: binding; conditions: read-out: %Ctrl @ 1000 nM
# T13 construct: purchased DiscoveRx KINOMEscan
# [2] = molecular target: RPS6KA4(Kin.Dom.2-C-terminal) (Homo sapiens, UniProt O75676); experiment: KINOMEscan; assay type: binding; conditions: read-out: %Ctrl @ 1000 nM
# CAMKK1 = molecular target: T14, CAMKK1 (Homo sapiens, UniProt Q8N5S9); experiment: KINOMEscan; assay type: binding; conditions: read-out: %Ctrl @ 1000 nM
# T14 construct: purchased DiscoveRx KINOMEscan
# CLK1 = molecular target: T15, CLK1 (Homo sapiens, UniProt P49759); experiment: KINOMEscan; assay type: binding; conditions: read-out: %Ctrl @ 1000 nM
# T15 construct: purchased DiscoveRx KINOMEscan
# PKN1 = molecular target: T16, PKN1 (Homo sapiens, UniProt Q16512); experiment: KINOMEscan; assay type: binding; conditions: read-out: %Ctrl @ 1000 nM
# T16 construct: purchased DiscoveRx KINOMEscan
# DAPK2 = molecular target: T17, DAPK2 (Homo sapiens, UniProt Q9UIK4); experiment: KINOMEscan; assay type: binding; conditions: read-out: %Ctrl @ 1000 nM
# T17 construct: purchased DiscoveRx KINOMEscan
# TNNI3K = molecular target: T18, TNNI3K (Homo sapiens, UniProt Q59H18); experiment: KINOMEscan; assay type: binding; conditions: read-out: %Ctrl @ 1000 nM
# T18 construct: purchased DiscoveRx KINOMEscan
# NIK = molecular target: T19, NIK (Homo sapiens, UniProt Q99558); experiment: KINOMEscan; assay type: binding; conditions: read-out: %Ctrl @ 1000 nM
# T19 construct: purchased DiscoveRx KINOMEscan
# YANK3 = molecular target: T20, YANK3 (Homo sapiens, UniProt Q86UX6); experiment: KINOMEscan; assay type: binding; conditions: read-out: %Ctrl @ 1000 nM
# T20 construct: purchased DiscoveRx KINOMEscan
# KIT = molecular target: T21, KIT (Homo sapiens, UniProt P10721); experiment: KINOMEscan; assay type: binding; conditions: read-out: %Ctrl @ 1000 nM
# T21 construct: purchased DiscoveRx KINOMEscan
# FGR = molecular target: T22, FGR (Homo sapiens, UniProt P09769); experiment: KINOMEscan; assay type: binding; conditions: read-out: %Ctrl @ 1000 nM
# T22 construct: purchased DiscoveRx KINOMEscan
# ASK2 = molecular target: T23, ASK2 (Homo sapiens, UniProt O95382); experiment: KINOMEscan; assay type: binding; conditions: read-out: %Ctrl @ 1000 nM
# T23 construct: purchased DiscoveRx KINOMEscan
# MKK7 = molecular target: T24, MKK7 (Homo sapiens, UniProt O14733); experiment: KINOMEscan; assay type: binding; conditions: read-out: %Ctrl @ 1000 nM
# T24 construct: purchased DiscoveRx KINOMEscan
# EPHA6 = molecular target: T25, EPHA6 (Homo sapiens, UniProt Q9UF33); experiment: KINOMEscan; assay type: binding; conditions: read-out: %Ctrl @ 1000 nM
# T25 construct: purchased DiscoveRx KINOMEscan
# KIT(L576P) = molecular target: T26, KIT(L576P) (Homo sapiens, UniProt P10721, L576P); experiment: KINOMEscan; assay type: binding; conditions: read-out: %Ctrl @ 1000 nM
# T26 construct: purchased DiscoveRx KINOMEscan
# SIK = molecular target: T27, SIK (Homo sapiens, UniProt P57059); experiment: KINOMEscan; assay type: binding; conditions: read-out: %Ctrl @ 1000 nM
# T27 construct: purchased DiscoveRx KINOMEscan
# PAK2 = molecular target: T28, PAK2 (Homo sapiens, UniProt Q13177); experiment: KINOMEscan; assay type: binding; conditions: read-out: %Ctrl @ 1000 nM
# T28 construct: purchased DiscoveRx KINOMEscan
# EGFR = molecular target: T29, EGFR (Homo sapiens, UniProt P00533); experiment: KINOMEscan; assay type: binding; conditions: read-out: %Ctrl @ 1000 nM
# T29 construct: purchased DiscoveRx KINOMEscan
# SRPK2 = molecular target: T30, SRPK2 (Homo sapiens, UniProt P78362); experiment: KINOMEscan; assay type: binding; conditions: read-out: %Ctrl @ 1000 nM
# T30 construct: purchased DiscoveRx KINOMEscan
# NEK9 = molecular target: T31, NEK9 (Homo sapiens, UniProt Q8TD19); experiment: KINOMEscan; assay type: binding; conditions: read-out: %Ctrl @ 1000 nM
# T31 construct: purchased DiscoveRx KINOMEscan
# EPHA3 = molecular target: T32, EPHA3 (Homo sapiens, UniProt P29320); experiment: KINOMEscan; assay type: binding; conditions: read-out: %Ctrl @ 1000 nM
# T32 construct: purchased DiscoveRx KINOMEscan
# NLK = molecular target: T33, NLK (Homo sapiens, UniProt Q9UBE8); experiment: KINOMEscan; assay type: binding; conditions: read-out: %Ctrl @ 1000 nM
# T33 construct: purchased DiscoveRx KINOMEscan
# BRSK1 = molecular target: T34, BRSK1 (Homo sapiens, UniProt Q8TDC3); experiment: KINOMEscan; assay type: binding; conditions: read-out: %Ctrl @ 1000 nM
# T34 construct: purchased DiscoveRx KINOMEscan
# MEK5 = molecular target: T35, MEK5 (Homo sapiens, UniProt Q13163); experiment: KINOMEscan; assay type: binding; conditions: read-out: %Ctrl @ 1000 nM
# T35 construct: purchased DiscoveRx KINOMEscan
# LZK = molecular target: T36, LZK (Homo sapiens, UniProt O43283); experiment: KINOMEscan; assay type: binding; conditions: read-out: %Ctrl @ 1000 nM
# T36 construct: purchased DiscoveRx KINOMEscan
# CSNK1G2 = molecular target: T37, CSNK1G2 (Homo sapiens, UniProt P78368); experiment: KINOMEscan; assay type: binding; conditions: read-out: %Ctrl @ 1000 nM
# T37 construct: purchased DiscoveRx KINOMEscan
# KIT(V559D,T670I) = molecular target: T38, KIT(V559D,T670I) (Homo sapiens, UniProt P10721, T670I/V559D); experiment: KINOMEscan; assay type: binding; conditions: read-out: %Ctrl @ 1000 nM
# T38 construct: purchased DiscoveRx KINOMEscan
# KIT(V559D,V654A) = molecular target: T39, KIT(V559D,V654A) (Homo sapiens, UniProt P10721, V559D/V654A); experiment: KINOMEscan; assay type: binding; conditions: read-out: %Ctrl @ 1000 nM
# T39 construct: purchased DiscoveRx KINOMEscan
# EPHA4 = molecular target: T40, EPHA4 (Homo sapiens, UniProt P54764); experiment: KINOMEscan; assay type: binding; conditions: read-out: %Ctrl @ 1000 nM
# T40 construct: purchased DiscoveRx KINOMEscan
# PCTK1 = molecular target: T41, PCTK1 (Homo sapiens, UniProt Q00536); experiment: KINOMEscan; assay type: binding; conditions: read-out: %Ctrl @ 1000 nM
# T41 construct: purchased DiscoveRx KINOMEscan
# SMYD2, sequence (Q9NRG4 whole entry): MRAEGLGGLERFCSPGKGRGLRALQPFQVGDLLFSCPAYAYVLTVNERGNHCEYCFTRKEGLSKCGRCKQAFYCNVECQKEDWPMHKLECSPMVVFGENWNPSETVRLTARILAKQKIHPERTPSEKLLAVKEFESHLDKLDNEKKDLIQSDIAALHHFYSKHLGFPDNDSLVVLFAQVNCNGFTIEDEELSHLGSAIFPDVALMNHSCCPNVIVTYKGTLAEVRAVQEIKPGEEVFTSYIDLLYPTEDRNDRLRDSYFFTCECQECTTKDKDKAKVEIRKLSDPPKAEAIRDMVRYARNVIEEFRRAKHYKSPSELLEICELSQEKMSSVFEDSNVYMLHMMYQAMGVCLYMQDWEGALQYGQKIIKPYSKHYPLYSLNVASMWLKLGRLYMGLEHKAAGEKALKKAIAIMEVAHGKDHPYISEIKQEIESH
# T30 sequence (P78362 whole entry): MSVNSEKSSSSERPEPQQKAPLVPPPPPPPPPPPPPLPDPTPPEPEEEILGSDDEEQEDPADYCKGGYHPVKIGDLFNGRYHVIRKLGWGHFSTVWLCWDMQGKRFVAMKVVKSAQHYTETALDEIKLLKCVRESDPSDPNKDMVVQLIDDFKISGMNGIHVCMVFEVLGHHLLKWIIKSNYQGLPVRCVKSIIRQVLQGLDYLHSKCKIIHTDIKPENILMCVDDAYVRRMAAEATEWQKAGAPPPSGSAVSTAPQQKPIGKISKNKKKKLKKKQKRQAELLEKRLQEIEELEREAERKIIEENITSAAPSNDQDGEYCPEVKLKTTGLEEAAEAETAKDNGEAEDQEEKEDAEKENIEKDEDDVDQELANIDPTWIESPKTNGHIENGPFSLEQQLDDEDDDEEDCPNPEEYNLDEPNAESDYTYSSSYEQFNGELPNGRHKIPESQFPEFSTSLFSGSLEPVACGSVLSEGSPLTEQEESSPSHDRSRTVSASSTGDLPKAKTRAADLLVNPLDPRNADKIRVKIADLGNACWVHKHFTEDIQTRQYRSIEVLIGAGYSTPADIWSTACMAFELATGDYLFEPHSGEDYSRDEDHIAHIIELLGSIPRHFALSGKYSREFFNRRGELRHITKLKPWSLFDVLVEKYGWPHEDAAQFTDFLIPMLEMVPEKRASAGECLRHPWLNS
# T37 sequence (P78368 whole entry): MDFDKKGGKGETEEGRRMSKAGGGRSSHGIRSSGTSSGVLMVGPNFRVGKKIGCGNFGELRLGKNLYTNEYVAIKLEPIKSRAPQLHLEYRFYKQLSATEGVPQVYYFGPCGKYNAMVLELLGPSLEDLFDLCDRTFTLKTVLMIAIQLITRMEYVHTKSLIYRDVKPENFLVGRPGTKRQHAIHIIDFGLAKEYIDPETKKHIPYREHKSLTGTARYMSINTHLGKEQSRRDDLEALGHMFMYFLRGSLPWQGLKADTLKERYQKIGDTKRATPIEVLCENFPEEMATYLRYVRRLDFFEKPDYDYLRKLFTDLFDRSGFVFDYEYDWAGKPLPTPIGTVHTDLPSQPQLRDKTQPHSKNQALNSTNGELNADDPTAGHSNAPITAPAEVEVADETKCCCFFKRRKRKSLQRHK
# T40 sequence (P54764 20-986): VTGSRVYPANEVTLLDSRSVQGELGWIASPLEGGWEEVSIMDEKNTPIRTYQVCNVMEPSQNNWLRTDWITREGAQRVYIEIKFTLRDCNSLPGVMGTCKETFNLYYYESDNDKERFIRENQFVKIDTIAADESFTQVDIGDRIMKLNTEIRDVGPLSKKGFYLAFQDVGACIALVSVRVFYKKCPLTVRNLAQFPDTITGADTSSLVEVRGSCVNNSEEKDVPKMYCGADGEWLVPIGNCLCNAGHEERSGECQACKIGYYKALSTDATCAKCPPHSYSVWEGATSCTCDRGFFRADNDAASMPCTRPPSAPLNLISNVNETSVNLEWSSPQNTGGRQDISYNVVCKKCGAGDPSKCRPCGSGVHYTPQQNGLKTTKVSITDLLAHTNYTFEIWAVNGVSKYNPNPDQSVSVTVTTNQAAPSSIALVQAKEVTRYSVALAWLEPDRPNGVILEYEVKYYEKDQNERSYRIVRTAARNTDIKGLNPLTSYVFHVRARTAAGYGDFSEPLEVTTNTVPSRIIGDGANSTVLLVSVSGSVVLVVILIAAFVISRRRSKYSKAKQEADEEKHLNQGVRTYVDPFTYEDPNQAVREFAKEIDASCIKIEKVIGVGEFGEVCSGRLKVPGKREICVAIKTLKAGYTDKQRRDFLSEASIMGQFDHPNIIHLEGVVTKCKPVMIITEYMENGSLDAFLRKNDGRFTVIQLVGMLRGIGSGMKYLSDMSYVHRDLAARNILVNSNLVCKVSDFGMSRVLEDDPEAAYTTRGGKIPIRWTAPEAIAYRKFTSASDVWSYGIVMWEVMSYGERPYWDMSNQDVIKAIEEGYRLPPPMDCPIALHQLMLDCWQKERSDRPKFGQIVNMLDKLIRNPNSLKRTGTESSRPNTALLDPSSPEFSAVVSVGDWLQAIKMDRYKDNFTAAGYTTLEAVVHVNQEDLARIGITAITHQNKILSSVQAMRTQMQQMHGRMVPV
# T1 sequence (O60285 whole entry): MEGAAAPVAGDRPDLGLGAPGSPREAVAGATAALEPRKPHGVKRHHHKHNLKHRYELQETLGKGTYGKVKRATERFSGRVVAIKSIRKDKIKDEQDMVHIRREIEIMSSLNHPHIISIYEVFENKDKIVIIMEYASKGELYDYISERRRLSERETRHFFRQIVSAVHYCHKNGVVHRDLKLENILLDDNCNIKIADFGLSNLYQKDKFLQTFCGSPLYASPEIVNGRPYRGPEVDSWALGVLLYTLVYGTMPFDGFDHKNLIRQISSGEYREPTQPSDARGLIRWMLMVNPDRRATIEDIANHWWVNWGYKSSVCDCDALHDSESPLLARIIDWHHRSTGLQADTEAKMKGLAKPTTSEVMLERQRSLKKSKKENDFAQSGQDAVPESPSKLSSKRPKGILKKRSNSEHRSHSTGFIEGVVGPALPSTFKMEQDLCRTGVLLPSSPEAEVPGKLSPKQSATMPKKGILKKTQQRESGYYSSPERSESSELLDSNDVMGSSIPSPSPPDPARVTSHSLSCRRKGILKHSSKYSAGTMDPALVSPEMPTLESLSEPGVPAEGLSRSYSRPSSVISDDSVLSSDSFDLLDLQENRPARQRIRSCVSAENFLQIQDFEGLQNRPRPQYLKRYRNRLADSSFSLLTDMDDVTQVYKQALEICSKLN
# RPS6KA4(Kin.Dom.2-C-terminal), sequence (O75676 411-674 limits assumed): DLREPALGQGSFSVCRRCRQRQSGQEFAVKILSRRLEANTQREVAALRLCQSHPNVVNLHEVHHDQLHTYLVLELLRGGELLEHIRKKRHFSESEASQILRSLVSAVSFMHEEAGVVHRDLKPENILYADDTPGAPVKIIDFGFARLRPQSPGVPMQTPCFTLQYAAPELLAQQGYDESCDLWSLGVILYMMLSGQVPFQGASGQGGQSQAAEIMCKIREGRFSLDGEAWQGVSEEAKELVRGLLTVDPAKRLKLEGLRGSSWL
# T4 sequence (Q9HCP0 whole entry): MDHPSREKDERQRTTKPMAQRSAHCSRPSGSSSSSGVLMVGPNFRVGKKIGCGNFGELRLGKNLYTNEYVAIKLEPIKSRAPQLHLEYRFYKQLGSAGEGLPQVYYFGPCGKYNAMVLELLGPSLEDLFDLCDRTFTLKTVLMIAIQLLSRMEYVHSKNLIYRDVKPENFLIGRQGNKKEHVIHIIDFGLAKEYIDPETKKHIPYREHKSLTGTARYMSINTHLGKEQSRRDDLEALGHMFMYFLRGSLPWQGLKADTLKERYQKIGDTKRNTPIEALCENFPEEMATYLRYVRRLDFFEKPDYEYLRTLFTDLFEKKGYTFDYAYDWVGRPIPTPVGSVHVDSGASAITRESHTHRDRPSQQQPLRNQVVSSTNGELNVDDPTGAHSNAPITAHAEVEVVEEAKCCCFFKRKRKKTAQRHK
# T35 sequence (Q13163 whole entry): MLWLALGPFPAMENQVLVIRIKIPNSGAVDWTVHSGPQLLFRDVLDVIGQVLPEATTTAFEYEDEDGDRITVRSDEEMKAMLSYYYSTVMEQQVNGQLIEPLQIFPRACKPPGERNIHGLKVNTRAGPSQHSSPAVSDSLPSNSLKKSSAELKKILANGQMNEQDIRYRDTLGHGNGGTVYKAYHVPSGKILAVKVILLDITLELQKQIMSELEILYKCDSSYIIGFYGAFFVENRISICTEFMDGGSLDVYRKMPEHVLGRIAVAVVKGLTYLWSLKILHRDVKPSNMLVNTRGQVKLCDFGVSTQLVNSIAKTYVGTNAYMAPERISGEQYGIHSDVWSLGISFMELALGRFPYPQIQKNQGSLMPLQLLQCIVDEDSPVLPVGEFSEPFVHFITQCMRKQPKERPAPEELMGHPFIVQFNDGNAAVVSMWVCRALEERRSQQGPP
# T14 sequence (Q8N5S9 whole entry): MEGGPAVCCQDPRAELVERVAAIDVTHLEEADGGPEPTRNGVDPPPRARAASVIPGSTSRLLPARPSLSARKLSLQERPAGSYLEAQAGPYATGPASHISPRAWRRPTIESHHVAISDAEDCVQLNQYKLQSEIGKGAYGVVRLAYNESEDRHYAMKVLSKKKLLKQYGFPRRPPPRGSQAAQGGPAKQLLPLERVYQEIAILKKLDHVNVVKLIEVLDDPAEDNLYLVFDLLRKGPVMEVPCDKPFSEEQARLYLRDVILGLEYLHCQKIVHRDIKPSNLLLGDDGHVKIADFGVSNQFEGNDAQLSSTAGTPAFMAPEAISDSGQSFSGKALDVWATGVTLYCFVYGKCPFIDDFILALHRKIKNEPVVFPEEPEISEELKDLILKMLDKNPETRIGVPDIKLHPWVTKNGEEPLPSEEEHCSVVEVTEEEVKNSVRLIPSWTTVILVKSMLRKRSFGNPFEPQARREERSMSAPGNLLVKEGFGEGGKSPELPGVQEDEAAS
structure (smiles),measurement,setting,value
CCN(C(=O)CO)[C@H]1CN(/C(=N\C#N)Nc2cccc(OC(F)F)c2)N=C1c1ccc(Cl)c(Cl)c1 [(S)-4],AHNAK methylation (Western blot),SMYD2,specifically reduced methylation of AHNAK; also recorded: inhibits concentration dependent
same,remaining binding at 1 µM,ARK5,100%
same,remaining binding at 1 µM,FRK,77%
same,remaining binding at 1 µM,KIT(V559D),99%
same,remaining binding at 1 µM,CSNK1G1,84%
same,remaining binding at 1 µM,CDK8,92%
same,remaining binding at 1 µM,SGK3,98%
same,remaining binding at 1 µM,ABL1-nonphosphorylated,79%
same,remaining binding at 1 µM,ZAK,95%
same,remaining binding at 1 µM,TBK1,82%
same,remaining binding at 1 µM,DLK,94%
same,remaining binding at 1 µM,[1],87%
same,remaining binding at 1 µM,EGFR(T790M),86%
same,remaining binding at 1 µM,PAK4,91%
same,remaining binding at 1 µM,[2],93%
same,remaining binding at 1 µM,CAMKK1,84%
same,remaining binding at 1 µM,CLK1,78%
same,remaining binding at 1 µM,PKN1,61%
same,remaining binding at 1 µM,DAPK2,100%
same,remaining binding at 1 µM,TNNI3K,73%
same,remaining binding at 1 µM,NIK,100%
same,remaining binding at 1 µM,YANK3,100%
same,remaining binding at 1 µM,KIT,100%
same,remaining binding at 1 µM,FGR,100%
same,remaining binding at 1 µM,ASK2,93%
same,remaining binding at 1 µM,MKK7,99%
same,remaining binding at 1 µM,EPHA6,99%
same,remaining binding at 1 µM,KIT(L576P),85%
same,remaining binding at 1 µM,SIK,98%
same,remaining binding at 1 µM,PAK2,89%
same,remaining binding at 1 µM,EGFR,99%
same,remaining binding at 1 µM,SRPK2,95%
same,remaining binding at 1 µM,NEK9,100%
same,remaining binding at 1 µM,EPHA3,100%
same,remaining binding at 1 µM,NLK,100%
same,remaining binding at 1 µM,BRSK1,100%
same,remaining binding at 1 µM,MEK5,100%
same,remaining binding at 1 µM,LZK,83%
same,remaining binding at 1 µM,CSNK1G2,94%
same,remaining binding at 1 µM,"KIT(V559D,T670I)",100%
same,remaining binding at 1 µM,"KIT(V559D,V654A)",100%
same,remaining binding at 1 µM,EPHA4,90%
same,remaining binding at 1 µM,PCTK1,98%
